Test [1] deals with methicillin resistant Staphylococcus aureus. Particulars: methicillin-resistant S. aureus (MR); s.c. in the hour subsequent to inoculation; previous studies; cited from earlier work.
Test [2] relates to methicillin-resistant S. aureus. Conditions: S. aureus (MR); s.c. in the hour subsequent to inoculation; cited from earlier work.
In another test the test system is microbial growth. The experiment in a line: Bacterial culture experiments with EK. The class given is cell-based. Conditions: concentrations exceeding 1000 times the administered dose to animals.
Test [3] deals with methicillin resistant Staphylococcus aureus. The experiment in a line: Survival of mice inoculated with 10xLD50 S. aureus, EK pretreatment with or without Ampicillin. The class given is in vivo. How it is done:
Animals were inoculated intraperitoneally with 10×LD50 of a Staphylococcus aureus suspended in brain-heart infusion broth containing 5 percent mucin. […] If significant prevention of mortality (>50 percent survival) was observed, the minimum effective dose (MED) was determined.
Two control experiments were initially conducted. […] No antibiotic was administered to this group. The number of survivors at 72 hours was determined. […] The number of survivors at 72 hours was recorded.
Survival statistics were determined over the periods of 12, 24, 36, 48, and 72 hours. […] Survival statistics were determined over the periods 12, 23,36, 48, and 72 hours. FIG. 1 illustrates the experimental protocol.

Setting [4] is: 12 HOURS after inoculation, EK 10 mcg/kg.
[5] abbreviates: 12 HOURS after inoculation, EK 100 mcg/kg.
Where [6] appears, read: 12 HOURS after inoculation, EK 1000 mcg/kg.
The mark [7] stands for this setting: 24 HOURS after inoculation, EK 10 mcg/kg.
The mark [8] stands for this setting: 24 HOURS after inoculation, EK 100 mcg/kg.
[9] abbreviates: 24 HOURS after inoculation, EK 1000 mcg/kg.
[10] abbreviates: 36 HOURS after inoculation, EK 10 mcg/kg.
The mark [11] stands for this setting: 36 HOURS after inoculation, EK 100 mcg/kg.
Setting [12] is: 36 HOURS after inoculation, EK 1000 mcg/kg.
The mark [13] stands for this setting: 48 HOURS after inoculation, EK 10 mcg/kg.
The mark [14] stands for this setting: 48 HOURS after inoculation, EK 100 mcg/kg.
Setting [15] is: 48 HOURS after inoculation, EK 1000 mcg/kg.
Setting [16] is: 72 HOURS after inoculation, EK 10 mcg/kg.
Setting [17] is: 72 HOURS after inoculation, EK 100 mcg/kg.
Where [18] appears, read: 72 HOURS after inoculation, EK 1000 mcg/kg.

`CC1(C)S[C@@H]2[C@H](NC(=O)[C@H](N)c3ccccc3)C(=O)N2[C@H]1C(=O)O` [Amp, Ampicillin]: the “MED (minimum effective dose)” value in test [1] and in test [2] was “greater than 100 mg/kg” each time.
With Glu-Lys [EK], the “activity on microbial growth” value in the test with microbial growth was “no inhibitory nor suppressive activity”. Further, the Deaths in test [3] (setting [4]) was found to be 0; in test [3] (setting [5]), 2; in test [3] (setting [6]) it was 1; in test [3] (setting [7]), 5; in test [3] (setting [8]), 5; in test [3] (setting [9]), 1. In addition, the Deaths in test [3] (setting [10]) is recorded as 9; in test [3] (setting [11]), 9; in test [3] (setting [12]), 4; in test [3] (setting [13]) it was 13; in test [3] (setting [14]), 13; in test [3] (setting [15]), 10. Also, the Deaths in test [3] (setting [16]) came out at 13; in test [3] (setting [17]), 13; in test [3] (setting [18]), 11. For the same compound, the Survival in test [3] (setting [4]) is 100.00%; in test [3] (setting [5]), 88.89%; in test [3] (setting [6]), 94.44%; in test [3] (setting [7]), 72.22%; in test [3] (setting [8]) it was 72.22%; in test [3] (setting [9]), 94.44%. For the same compound, the Survival is listed as 50.00% in test [3] (setting [10]); 50.00% in test [3] (setting [11]); 77.78% in test [3] (setting [12]); 44.44% in test [3] (setting [15]); 38.89% in test [3] (setting [18]); not above 78% in test [3] (at 36 hours, across EK dose groups). Further, in test [3] (by 72 hours, across EK dose groups), the “Survival” value is “at least 27%”. The Survivors in test [3] (setting [4]) came to 18; in test [3] (setting [5]), 16; in test [3] (setting [6]) it was 17; in test [3] (setting [7]), 13; in test [3] (setting [8]), 13; in test [3] (setting [9]), 17. In addition, the Survivors is listed as 9 in test [3] (setting [10]); 9 in test [3] (setting [11]); 14 in test [3] (setting [12]); 5 in test [3] (setting [13]); 5 in test [3] (setting [14]); 8 in test [3] (setting [15]). Besides, the Survivors is 5 in test [3] (setting [16]), 5 in test [3] (setting [17]) and 7 in test [3] (setting [18]). Moreover, the “survival after normally lethal i.p. dose of S. aureus” value in test [3] (EK pretreatment) is listed as “dramatic improvement in survival”.

The values above are taken from patent US6346514B1, “Pharmaceutical lysine-containing polypeptide compositions and methods of use thereof” (priority 1991, dated 2002).
